What all share (type): functional
For assay [1], the system named is Bacillus subtilis. Nature of the assay: Induction of poly-gamma-glutamic acid production in Bacillus subtilis subsp. natto at >1 nM incubated for 72 hrs at 37 degC by ultra-filtration method.
Assay [2] has as its system Bacillus subtilis. The experiment in a line: Induction of poly-gamma-glutamic acid production in Bacillus subtilis subsp. natto at 10 nM incubated for 72 hrs at 37 degC by ultra-filtration method.
The test system of assay [3] is Bacillus subtilis. The experiment in a line: Induction of poly-gamma-glutamic acid production in Bacillus subtilis subsp. natto at 100 nM incubated for 72 hrs at 37 degC by ultra-filtration method.
Assay [4] deals with Bacillus subtilis. The experiment in a line: Induction of poly-gamma-glutamic acid production in Bacillus subtilis subsp. natto at 1000 nM incubated for 72 hrs at 37 degC by ultra-filtration method.

The source made the active and inactive calls. No cut-off for these calls is given here. *1 amine or outer side, *2 acyl side, *3 side chain or, on linkers, in order; H or OH if unused. Where a SMILES comes first, the peptide text is derived from it. [ ]: non-standard residue; d: D form. X1 = CC(C)=CCC/C(C)=C/CC/C(C)=C/C[C@]12C[C@@H](C(=O)[*:2])N([*:1])[C@@H]1Nc1ccccc12

Turning to `CC[C@H](C)[C@H](NC(=O)[C@@H]1CCCN1C(=O)[C@@H]1CCCN1C(=O)[C@@H]1C[C@]2(C/C=C(\C)CC/C=C(\C)CCC=C(C)C)c3ccccc3N[C@H]2N1C(=O)[C@@H](N)CCCCN)C(=O)N[C@@H](CCC(=O)O)C(=O)O` (H-K[X1]PPIE-OH), the outcome in assay [1] and in assay [2] was Active. Moreover, in assay [3], the “fold change (FC)” value was determined as 2.
As for H-KWPPIE-OH, the outcome in assay [4] was inactive.

(Values after ChEMBL document CHEMBL3616429, “Chemical structure and biological activity of a quorum sensing pheromone from Bacillus subtilis subsp. natto” (2015).)
